How the values were obtained:
redroot pigweed [1] = assay: Test Example 4: herbicidal effect by soil treatment (Table 19, symbol N); type: in vivo, redroot pigweed (Amaranthus retroflexus); details: amount of applied herbicide 320 g/ha
Outline: (§1)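 Applied as a water-diluted emulsion, the compound was sprayed onto soil covering newly sown seeds. Evaluation came three weeks after application, in a greenhouse held at 25° C. to 30° C.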

persian speedwell [2] = assay: Test Example 5: herbicidal effect by foliage application, plastic box (Table 20, symbol R); type: in vivo, Persian speedwell (Veronica persica); details: 320 g/ha, foliage application after 14-day growth, evaluated three weeks after application
Outline: (§2)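 Sow seeds spot-wise in sterilized diluvial soil; cover with ~1.5 cm soil. Grow 14 days in greenhouse, 25° C. to 30° C. Spray foliage with emulsion diluted to predetermined amount. Rate effect after 3 weeks.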

barnyard grass [3] = assay: Test Example 4: herbicidal effect by soil treatment (Table 19, symbol H); type: in vivo, barnyard grass (Echinochloa crus-galli); details: amount of applied herbicide 320 g/ha
Outline: as §1

rice flat sedge = assay: Test Example 3: herbicidal effect by foliage application, Wagner pot (Table 18, symbol E); type: in vivo, rice flat sedge (Cyperus iria); details: 320 g/ha
Outline: (§3)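 Plants were sown in alluvial soil held under 0.1–0.5 cm standing water and grown 14 days in a greenhouse at 25–30 °C. An emulsifiable formulation, water-diluted to the set dose, was then sprayed onto the foliage, and effects were scored three weeks later using previously defined criteria.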

velvetleaf [4] = assay: Test Example 4: herbicidal effect by soil treatment (Table 19, symbol M); type: in vivo, velvetleaf (Abutilon theophrasti); details: amount of applied herbicide 320 g/ha
Outline: as §1

blackgrass [5] = assay: Test Example 4: herbicidal effect by soil treatment (Table 19, symbol J); type: in vivo, blackgrass (Alopecurus myosuroides); details: amount of applied herbicide 320 g/ha
Outline: as §1

windgrass [6] = assay: Test Example 5: herbicidal effect by foliage application, plastic box (Table 20, symbol L); type: in vivo, windgrass (Apera spica-venti); details: 320 g/ha, foliage application after 14-day growth, evaluated three weeks after application
Outline: as §2

green foxtail [7] = assay: Test Example 5: herbicidal effect by foliage application, plastic box (Table 20, symbol G); type: in vivo, green foxtail (Setaria viridis); details: 320 g/ha, foliage application after 14-day growth, evaluated three weeks after application
Outline: as §2

Italian ryegrass [8] = assay: Test Example 4: herbicidal effect by soil treatment (Table 19, symbol K); type: in vivo, Italian ryegrass (Lolium multiflorum); details: amount of applied herbicide 320 g/ha
Outline: as §1

barnyard grass [9] = assay: Test Example 3: herbicidal effect by foliage application, Wagner pot (Table 18, symbol H); type: in vivo, barnyard grass (Echinochloa crus-galli); details: 320 g/ha
Outline: as §3

redroot pigweed [10] = assay: Test Example 5: herbicidal effect by foliage application, plastic box (Table 20, symbol N); type: in vivo, redroot pigweed (Amaranthus retroflexus); details: 320 g/ha, foliage application after 14-day growth, evaluated three weeks after application
Outline: as §2

Chinese sprangletop = assay: Test Example 3: herbicidal effect by foliage application, Wagner pot (Table 18, symbol D); type: in vivo, chinese sprangletop (Leptochloa chinensis); details: 320 g/ha
Outline: as §3

lambsquarters [11] = assay: Test Example 4: herbicidal effect by soil treatment (Table 19, symbol O); type: in vivo, lambsquarters (Chenopodium album); details: amount of applied herbicide 320 g/ha
Outline: as §1

velvetleaf [12] = assay: Test Example 5: herbicidal effect by foliage application, plastic box (Table 20, symbol M); type: in vivo, velvetleaf (Abutilon theophrasti); details: 320 g/ha, foliage application after 14-day growth, evaluated three weeks after application
Outline: as §2

wild oat [13] = assay: Test Example 5: herbicidal effect by foliage application, plastic box (Table 20, symbol I); type: in vivo, wild oat (Avena fatua); details: 320 g/ha, foliage application after 14-day growth, evaluated three weeks after application
Outline: as §2

oval-leafed pondweed = assay: Test Example 1: herbicidal activity, application before weed generation under submerged conditions (Table 16, symbol C); type: in vivo, oval-leafed pondweed (Monochoria vaginalis); details: amount of applied herbicide 320 g/ha
Outline: (§4)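 Alluvial soil was flooded to 4 cm depth, weed seeds were sown mixed and 2.5-leaf rice seedlings were transplanted. On sowing day, the compound's emulsion, diluted in water to a set dose, was applied to the water surface. Plants grew at 25–30 °C and were scored 0–5 after three weeks.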

Japanese bulrush = assay: Test Example 1: herbicidal activity, application before weed generation under submerged conditions (Table 16, symbol B); type: in vivo, Japanese bulrush (Schoenoplectus juncoides); details: amount of applied herbicide 320 g/ha
Outline: as §4

wild oat [14] = assay: Test Example 4: herbicidal effect by soil treatment (Table 19, symbol I); type: in vivo, wild oat (Avena fatua); details: amount of applied herbicide 320 g/ha
Outline: as §1

windgrass [15] = assay: Test Example 4: herbicidal effect by soil treatment (Table 19, symbol L); type: in vivo, windgrass (Apera spica-venti); details: amount of applied herbicide 320 g/ha
Outline: as §1

chickweed [16] = assay: Test Example 5: herbicidal effect by foliage application, plastic box (Table 20, symbol P); type: in vivo, common chickweed (Stellaria media); details: 320 g/ha, foliage application after 14-day growth, evaluated three weeks after application
Outline: as §2

persian speedwell [17] = assay: Test Example 4: herbicidal effect by soil treatment (Table 19, symbol R); type: in vivo, Persian speedwell (Veronica persica); details: amount of applied herbicide 320 g/ha
Outline: as §1

barnyard grass [18] = assay: Test Example 5: herbicidal effect by foliage application, plastic box (Table 20, symbol H); type: in vivo, barnyard grass (Echinochloa crus-galli); details: 320 g/ha, foliage application after 14-day growth, evaluated three weeks after application
Outline: as §2

chickweed [19] = assay: Test Example 4: herbicidal effect by soil treatment (Table 19, symbol P); type: in vivo, common chickweed (Stellaria media); details: amount of applied herbicide 320 g/ha
Outline: as §1

southern crabgrass [20] = assay: Test Example 5: herbicidal effect by foliage application, plastic box (Table 20, symbol F); type: in vivo, southern crabgrass (Digitaria ciliaris); details: 320 g/ha, foliage application after 14-day growth, evaluated three weeks after application
Outline: as §2

blackgrass [21] = assay: Test Example 5: herbicidal effect by foliage application, plastic box (Table 20, symbol J); type: in vivo, blackgrass (Alopecurus myosuroides); details: 320 g/ha, foliage application after 14-day growth, evaluated three weeks after application
Outline: as §2

Italian ryegrass [22] = assay: Test Example 5: herbicidal effect by foliage application, plastic box (Table 20, symbol K); type: in vivo, Italian ryegrass (Lolium multiflorum); details: 320 g/ha, foliage application after 14-day growth, evaluated three weeks after application
Outline: as §2

late watergrass = assay: Test Example 1: herbicidal activity, application before weed generation under submerged conditions (Table 16, symbol A); type: in vivo, late watergrass (Echinochloa oryzicola); details: amount of applied herbicide 320 g/ha
Outline: as §4

lambsquarters [23] = assay: Test Example 5: herbicidal effect by foliage application, plastic box (Table 20, symbol O); type: in vivo, lambsquarters (Chenopodium album); details: 320 g/ha, foliage application after 14-day growth, evaluated three weeks after application
Outline: as §2

southern crabgrass [24] = assay: Test Example 4: herbicidal effect by soil treatment (Table 19, symbol F); type: in vivo, southern crabgrass (Digitaria ciliaris); details: amount of applied herbicide 320 g/ha
Outline: as §1

green foxtail [25] = assay: Test Example 4: herbicidal effect by soil treatment (Table 19, symbol G); type: in vivo, green foxtail (Setaria viridis); details: amount of applied herbicide 320 g/ha
Outline: as §1

Compound	Herbicidal effect by soil treatment, N: redroot pigweed (redroot pigweed [1])	herbicidal effect on R: persian speedwell (evaluation grade 0-5) (persian speedwell [2])	Herbicidal effect by soil treatment, H: barnyard grass (barnyard grass [3])	herbicidal effect on rice flat sedge (E) (rice flat sedge)	Herbicidal effect by soil treatment, M: velvetleaf (velvetleaf [4])	Herbicidal effect by soil treatment, J: blackgrass (blackgrass [5])	herbicidal effect on L: windgrass (evaluation grade 0-5) (windgrass [6])	herbicidal effect on G: green foxtail (evaluation grade 0-5) (green foxtail [7])	Herbicidal effect by soil treatment, K: Italian ryegrass (Italian ryegrass [8])	herbicidal effect on barnyard grass (H) (barnyard grass [9])	herbicidal effect on N: redroot pigweed (evaluation grade 0-5) (redroot pigweed [10])	herbicidal effect on Chinese sprangletop (D) (Chinese sprangletop)	Herbicidal effect by soil treatment, O: lambsquarters (lambsquarters [11])	herbicidal effect on M: velvetleaf (evaluation grade 0-5) (velvetleaf [12])	herbicidal effect on I: wild oat (evaluation grade 0-5) (wild oat [13])	Herbicidal effect, C: oval-leafed pondweed (oval-leafed pondweed)	Herbicidal effect, B: Japanese bulrush (Japanese bulrush)	Herbicidal effect by soil treatment, I: wild oat (wild oat [14])	Herbicidal effect by soil treatment, L: windgrass (windgrass [15])	herbicidal effect on P: chickweed (evaluation grade 0-5) (chickweed [16])	other results
COc1ccc2c(-c3c(O)c(C)nn(C)c3=O)c(-c3ccc(OC(F)F)cc3)sc2c1 [3-159]	4 (Herbicidal rate of 70% or more and less than 90%)	5 (Herbicidal rate of 90% or more (almost completely withered))	0 (Herbicidal rate of 5% or less (almost no effect))	3 (Herbicidal rate of 40% or more and less than 70%)	1 (Herbicidal rate of 5% or more and less than 20%)	0 (Herbicidal rate of 5% or less (almost no effect))	0 (Herbicidal rate of 5% or less (almost no effect))	0 (Herbicidal rate of 5% or less (almost no effect))	0 (Herbicidal rate of 5% or less (almost no effect))	2 (Herbicidal rate of 20% or more and less than 40%)	5 (Herbicidal rate of 90% or more (almost completely withered))	0 (Herbicidal rate of 5% or less (almost no effect))	4 (Herbicidal rate of 70% or more and less than 90%)	4 (Herbicidal rate of 70% or more and less than 90%)	0 (Herbicidal rate of 5% or less (almost no effect))	3 (Herbicidal rate of 40% or more and less than 70%)	3 (Herbicidal rate of 40% or more and less than 70%)	0 (Herbicidal rate of 5% or less (almost no effect))	0 (Herbicidal rate of 5% or less (almost no effect))	5 (Herbicidal rate of 90% or more (almost completely withered))	Herbicidal effect by soil treatment, R: persian speedwell (persian speedwell [17]): 3 (Herbicidal rate of 40% or more and less than 70%); herbicidal effect on H: barnyard grass (evaluation grade 0-5) (barnyard grass [18]): 0 (Herbicidal rate of 5% or less (almost no effect)); Herbicidal effect by soil treatment, P: chickweed (chickweed [19]): 0 (Herbicidal rate of 5% or less (almost no effect)); herbicidal effect on F: southern crabgrass (evaluation grade 0-5) (southern crabgrass [20]): 0 (Herbicidal rate of 5% or less (almost no effect)); herbicidal effect on J: blackgrass (evaluation grade 0-5) (blackgrass [21]): 3 (Herbicidal rate of 40% or more and less than 70%); herbicidal effect on K: Italian ryegrass (evaluation grade 0-5) (Italian ryegrass [22]): 4 (Herbicidal rate of 70% or more and less than 90%); Herbicidal effect, A: late watergrass (late watergrass): 0 (Herbicidal rate of 5% or less (almost no effect)); herbicidal effect on O: lambsquarters (evaluation grade 0-5) (lambsquarters [23]): 5 (Herbicidal rate of 90% or more (almost completely withered)); Herbicidal effect by soil treatment, F: southern crabgrass (southern crabgrass [24]): 0 (Herbicidal rate of 5% or less (almost no effect)); Herbicidal effect by soil treatment, G: green foxtail (green foxtail [25]): 0 (Herbicidal rate of 5% or less (almost no effect))
CCCC(=O)Oc1c(C)nn(C)c(=O)c1-c1c(-c2ccccc2OCC)sc2c(F)cccc12 [4-008]	2 (Herbicidal rate of 20% or more and less than 40%)	4 (Herbicidal rate of 70% or more and less than 90%)	3 (Herbicidal rate of 40% or more and less than 70%)	5 (Herbicidal rate of 90% or more (almost completely withered))	1 (Herbicidal rate of 5% or more and less than 20%)	0 (Herbicidal rate of 5% or less (almost no effect))	5 (Herbicidal rate of 90% or more (almost completely withered))	5 (Herbicidal rate of 90% or more (almost completely withered))	0 (Herbicidal rate of 5% or less (almost no effect))	5 (Herbicidal rate of 90% or more (almost completely withered))	5 (Herbicidal rate of 90% or more (almost completely withered))	3 (Herbicidal rate of 40% or more and less than 70%)	2 (Herbicidal rate of 20% or more and less than 40%)	4 (Herbicidal rate of 70% or more and less than 90%)	0 (Herbicidal rate of 5% or less (almost no effect))	0 (Herbicidal rate of 5% or less (almost no effect))	3 (Herbicidal rate of 40% or more and less than 70%)	0 (Herbicidal rate of 5% or less (almost no effect))	0 (Herbicidal rate of 5% or less (almost no effect))	5 (Herbicidal rate of 90% or more (almost completely withered))	Herbicidal effect by soil treatment, R: persian speedwell (persian speedwell [17]): 0 (Herbicidal rate of 5% or less (almost no effect)); herbicidal effect on H: barnyard grass (evaluation grade 0-5) (barnyard grass [18]): 4 (Herbicidal rate of 70% or more and less than 90%); Herbicidal effect by soil treatment, P: chickweed (chickweed [19]): 1 (Herbicidal rate of 5% or more and less than 20%); herbicidal effect on F: southern crabgrass (evaluation grade 0-5) (southern crabgrass [20]): 4 (Herbicidal rate of 70% or more and less than 90%); herbicidal effect on J: blackgrass (evaluation grade 0-5) (blackgrass [21]): 3 (Herbicidal rate of 40% or more and less than 70%); herbicidal effect on K: Italian ryegrass (evaluation grade 0-5) (Italian ryegrass [22]): 0 (Herbicidal rate of 5% or less (almost no effect)); Herbicidal effect, A: late watergrass (late watergrass): 3 (Herbicidal rate of 40% or more and less than 70%); herbicidal effect on O: lambsquarters (evaluation grade 0-5) (lambsquarters [23]): 3 (Herbicidal rate of 40% or more and less than 70%); Herbicidal effect by soil treatment, F: southern crabgrass (southern crabgrass [24]): 2 (Herbicidal rate of 20% or more and less than 40%); Herbicidal effect by soil treatment, G: green foxtail (green foxtail [25]): 3 (Herbicidal rate of 40% or more and less than 70%)

— US20230085307A1, “PYRIDAZINONE COMPOUND AND HERBICIDE” (NISSAN CHEMICAL CORPORATION, priority 2019, published 2023)
